Experimental data as given in US9233127B2, “Compositions and methods for CXCR4 signaling and umbilical cord blood stem cell engraftment” (University of Virginia Patent Foundation, priority 2012, dated 2016).
“Also recorded” adds a separate entry of the source. Ends that are not written are not given here.

Key:
[1] = test system: DNA methyltransferase; assay: miR-184 expression by RT-PCR in adult CD4 T-cells treated with 5-aza deoxycytidine; type: cell-based, human; details: 10 uM for 24 h
Procedure: FIG. 29A-B—A.) Schematic of the genomic region surrounding hsa-miR-184. Dots denote CpG sites and a putative CpG island (defined by observed/expected CpG incidence>[…], GC>50%, length>100 bp) located closely upstream. B) Adult CD4 T-cells were cultured with and without the DNA methyltransferase blocker 5-aza deoxycytidine (5-aza) for 24 h, a portion stimulation for 6 h, then assayed for miR-184 expression by RT-PCR.
However, expression of many miRNA species is known to be mediated by epigenetic events such as DNA methylation. […] Indeed we observed a small predicted (obs/exp>0.6, GC>50%) CpG island upstream of the miR-184 genomic site as well as several additional downstream CpG sites (FIG. 29 A). Inhibition of […] gene silencing is accomplished by treating with 5-aza-deoxycytidine, which is incorporated into replicating DNA and blocks DNA methyltransferase enzymes.

[2] = test system: syngeneic BM mononuclear cells; assay: Murine BM transplant with BM mononuclear cells exposed ex vivo to LL-37; type: in vivo; details: BM exposed ex vivo 30 minutes; lethally irradiated recipients
Procedure: Leukophoresis products enriched in activated granulocytes release hBD-2 and LL-37. The question was whether this might explain why mobilized peripheral blood hematopoietic progenitors engrafts substantially faster relative to marrow. We therefore performed studies in a murine BM transplant model where syngeneic BM mononuclear cells were exposed ex vivo to LL-37 for 30 minutes and subsequently transplanted into lethally irradiated recipients. […] On the basis of these findings, this represents a second strategy for reducing the period of neutropenia in recipients of UCB

[3] = test system: murine BMNCs and CFU-GM progenitor cells; assay: Migration of murine BMNCs and CFU-GM progenitors to SDF-1 gradient after cationic peptide priming; type: cell-based; details: for migration of CFU-GM progenitor cells in response to SDF-1 gradient / migration of murine BMNCs in response to SDF-1 gradient: SDF-1 50 ng/ml; for chemotactic activity alone: without SDF-1
Procedure: FIG. 8A-B—A) BM mononuclear cell and B) CFU-GM migration in response to an SDF-1 gradient after priming with LL-37 or hBD-2. Values are fold increases of migrated cells compared to media alone.
FIG. 17A-B—Cationic peptides released from granulocytes enhance responsiveness of HSPCs to SDF-1 gradient. […] Values are the fold increases of migrated cells compared to media alone. M, media alone; SDF-1 (L), 50 ng/ml; SDF-1 (H), 300 ng/ml; C3a, 1 μg/ml. * P<0.05 as compared with SDF-1 (50 ng/ml) alone. The data shown represent the combine results from four independent experiments carried out in triplicate per group (n=12).
We also evaluated the effect of complement fragment 5a (C5a). […] After leaving the BM, granulocytes undergo degranulation in response to plasma C5a and secrete cationic peptides, such as cathelicidin (LL-37) and β-defensin-2 (hBD-2). […] It was hypothesized that this response may be affected by the distribution of membrane lipids by cationic peptides. […] Direct confocal analysis of CXCR4 and lipid raft colocalization in the presence or absence of cationic peptides confirmed these findings.

[4] = test system: CXCR4; assay: Western blot of CXCR4 in lipid raft membrane fractions, cationic peptides (Nalm-6); type: cell-based, human
Procedure: (§1) FIG. 18A-B—Priming effect of cationic peptides is dependent on enhanced incorporation of CXCR4 into lipid rafts. (A) Western blot analysis of the localization of CXCR4 in various fractions of cell membranes. Membranes enriched in lipid rafts (fractions 3-5) and depleted of lipid rafts (fractions 9-11). Human pre-B cell line, Nalm-6, was stimulated with […] β2-defensin (hBD-2) (250 ng/ml) or was not stimulated (control). CXCR4 was detected in these membrane fractions by Western blot along with Lyn, a marker of lipid rafts. Experiments were performed three times with similar results. (B) LL-37-induced enhancement of THP-1 cell migration to SDF-1 gradient was inhibited by 1 h pretreatment with MβCD (1.0 or 2.5 mM). * P<0.05 as compared with migration of control cells in the absence of LL-37 (2.5 μg/ml). Lipid raft formation was analyzed. Shown are representative of three independent experiment carried out in triplicate per group. The data shown represent the combine results from four independent experiments carried out in triplicate per group (n=12).
(§2) Since enhanced responsiveness of HSPCs to SDF-1 gradient in the presence of C3a (priming effect) is mediated by incorporation of CXCR4 into membrane lipid rafts, we tested if similar phenomenon is responsible for LL-37 or β2D-dependent priming. […]

[5] = test system: THP-1 cell; assay: THP-1 cell migration to SDF-1 gradient with LL-37 and MβCD pretreatment; type: cell-based
Procedure: as §1, §2

[6] = test system: CD34+ cells; assay: Transwell chemotaxis of CD34+ cells to an SDF-1 gradient (priming); type: cell-based, human; details: pre-incubated 1 hr with MβCD (2.5 mM); low dose of SDF-1
Procedure: FIG. 11A-B—Effect of SLP and its components on chemotaxis of CD34^+ cells. Panel A: Chemotaxis of BM CD34^+ cells towards medium alone (control), SDF-1 low (10 ng/mL) alone, SLP (combined SLP from three patients), SDF-1 low+SLP, and SDF-1 high (300 ng/mL). Data are pooled from quadruplicate samples from three independent experiments. *p<0.00001. Panel B: Chemotaxis of UCB CD34^+ cells to medium alone (control), SDF-1 low (10 ng/mL) alone and SDF-1 low (10 ng/mL)+uPAR (1 μg/mL) or +ICAM (1 μg/mL) or +VCAM (1 μg/mL) or +FN (2 μg/mL), or +FG (4 μg/mL) or +C3a (1 μg/mL). Data are pooled from quadruplicate samples from three independent experiments. * p<0.00001.
Chemotaxis of CD34^+ cells to medium alone (control), C3a (1 μg/ml), C3adesArg (1 μg/ml), SDF-1 low (10 ng/mL) alone, and SDF-1 low (10 ng/mL)+C3a low (0.1 μg/ml) or SDF-1 low (10 ng/mL)+C3a (1 μg/ml) or SDF-1 low (10 ng/mL)+C3adesArg (1 μg/ml). Data are pooled from quadruplicate samples from three independent experiments.* p<0.00001.
FIG. 13A-B—Chemotaxis of cells to an SDF-1 gradient is lipid raft-dependent. Panel A: Chemotaxis of CD34^+ cells to medium alone (control), SDF-1 (300 ng/mL) and SDF-1 (300 ng/mL) after preincubation for 1 hr with Amphotericin (10 μg/mL) or Nystatin (50 μg/mL). Cells were collected after chemotaxis from the lower chambers and plated in a clonogenic assay. The number of CFU-GM and BFU-E colonies formed by harvested cells is shown as a percentage of control values. Data are pooled from quadruplicate samples from three independent experiments. *p<0.0001. Panel B: Chemotaxis of CD34^+ cells towards medium alone (control), SDF-1 low (10 ng/mL) alone, or SDF-1 low with cells exposed to C3a (1 μg/mL). Cells pretreated before chemotaxis for 1 hr with MβCD (2.5 mM) are shown as gray bars. Data are pooled from quadruplicate samples from three independent experiments. * p<0.00001.
HSPCs from the mPB engraft faster compared to HSPCs aspirated from BM. To test the hypothesis that mPB-derived HSPCs are primed in their responses to SDF-1 by molecules present in SLP, we pooled together SLP from three patients and exposed BM or UCB CD34^+ cells to the SLP during chemotaxis to a low (10 ng/mL) dose of SDF-1.
To address this issue further, the formation of rafts in the cells was perturbed by MβCD, which depletes cholesterol from the cell membrane. The CD34^+ cells were pre-incubated with MβCD for 1 hr. Chemotaxis to a low dose of SDF-1 in the presence of C3a (in the upper chambers) was evaluated.

| Compound | miR-184 expression [1] | miR-184 expression increase when cells were stimulated in vitro ([1]; stimulation 6 h) | accelerated recovery of platelets and neutrophils compared to unprimed control cells [2] [days] | priming effect compared with that described for C3a [3] | responsiveness of hematopoietic progenitors to plasma SDF-1 (priming effect) [3] | migration of CFU-GM progenitor cells in response to SDF-1 gradient [3] | migration of murine BMNCs in response to SDF-1 gradient [3] | chemotactic activity alone [3] | incorporation of CXCR4 into membrane lipid rafts [4] | migration of CFU-GM progenitor cells in response to SDF-1 gradient ([3]; listed as β2D) | migration of murine BMNCs in response to SDF-1 gradient ([3]; listed as β2D) | LL-37-enhanced migration/responsiveness to SDF-1 gradient ([5]; 1 h pretreatment with MβCD (1.0 or 2.5 mM), LL-37 2.5 μg/ml) | fMLP mediated migration ([5]; control experiments, MβCD pretreatment) | inhibition of the priming effect of C3a [6] [%] | effect on the priming effects of LL-37 and hBD-2 ([3]; inhibitor of cell membrane raft formation) |
| --- | --- | --- | --- | --- | --- | --- | --- | --- | --- | --- | --- | --- | --- | --- | --- |
| Nc1ncn([C@H]2C[C@H](O)[C@@H](CO)O2)c(=O)n1 [5-aza deoxycytidine, 5-aza-deoxycytidine] | significant increase | abrogated | – | – | – | – | – | – | – | – | – | – | – | – | – |
| LL-37: active fragment of cathelicidin; recombinant cationic peptide released from granulocytes (LLGDFFRKSKEKIGKEFKRIVQRIKDFLRNLVPRTES; Antibacterial peptide LL-37; UniProt P49913 134-170, looked up) | – | – | 3 to 5 | several times higher | highly enhanced | enhance/prime migration; also recorded: strongly enhanced | enhance/prime migration; also recorded: strongly enhanced | do not show chemotactic activity | increase incorporation of CXCR4 | – | – | – | – | – | – |
| hBD-2: β-defensin-2; recombinant cationic peptide released from granulocytes (GIGDPVTCLKSGAICHPVFCPRRYKQIGTCGLPGTKCCKKP; ends and bridges not checked; cysteine pairing not given here; UniProt O15263 24-64, looked up) | – | – | – | several times higher | highly enhanced | strongly enhanced | strongly enhanced | do not show chemotactic activity | increase incorporation of CXCR4 | enhance/prime migration | enhance/prime migration | – | – | – | – |
| methyl-β-cyclodextrin [MβCD, reference compound] | – | – | – | – | – | – | – | – | – | – | – | inhibited | did not affect | ~60 | inhibit the priming effects |
